We go through two compounds from patent publication US20250302080A1, “SWEETNESS AND/OR FLAVOR ENHANCER” (AJINOMOTO CO., INC., priority 2022, published 2025).

Assay [1] can be described thus: Sensory evaluation of sweetness intensity in aspartame solution, four reference samples (Experimental Example 22). How it is done: A negative control aspartame solution (0.063 wt % aspartame solution) was prepared by dissolving aspartame in filtered water.
(§1) A sensory evaluation of sweetness intensity was performed for each sample by a panel of four experts according to the following evaluation criteria.
(§2) Sweetness intensity was evaluated by 0.0 to 10.0 point based on the following reference samples (negative control (hereinafter referred to as NC) (0.0 point); reference 1 (hereinafter referred to as R1) (3.2 points), reference 2 (hereinafter referred to as R2) (5.0 points); reference 3 (hereinafter referred to as R3) (10.0 points)). The average score (rounded to two decimal places) of each expert panelist was calculated. An average score of 3.0 points or more was considered to be functional. • NC (0.0 point): 0.063 wt % aspartame solution (solvent: filtered water) • R1 (3.2 points): 0.063 wt % aspartame solution (solvent: filtered water)+decanoic acid (10 ppb) • R2 (5.0 points): 0.066 wt % aspartame solution (solvent: filtered water) • R3 (10.0 points): 0.069 wt % aspartame solution (solvent: filtered water)

A short description of assay [2]: Sensory evaluation of sweetness intensity in RebA solution, four reference samples (Experimental Examples 17-19). As to conditions: for concentration at which a sweetness-enhancing effect was confirmed: added alone, 3.0 points or more. How it is done:
A negative control RebA solution (0.073 wt % RebA solution) was prepared by dissolving RebA in filtered water.
as §1
Sweetness intensity was evaluated by 0.0 to 10.0 points based on the following reference samples (negative control (hereinafter referred to as NC) (0.0 point); reference 1 (hereinafter referred to as R1) (3.2 points), reference 2 (hereinafter referred to as R2) (5.0 points); reference 3 (hereinafter referred to as R3) (10.0 points)). The average score (rounded to two decimal places) of each expert panelist was calculated. An average score of 3.0 points or more was considered to be functional. • NC (0.0 point): 0.073 wt % RebA solution (solvent: filtered water) • R1 (3.2 points): 0.073 wt % RebA solution (solvent: filtered water)+decanoic acid (10 ppb) • R2 (5.0 points): 0.077 wt % RebA solution (solvent: filtered water) • R3 (10.0 points): 0.080 wt % RebA solution (solvent: filtered water)
A sensory evaluation of sweetness intensity was performed for each sample by a panel of four experts according to the same evaluation criteria as in Experimental Example 17.

The nature of assay [3]: Sensory evaluation of sweetness intensity in sucralose solution (Experimental Examples 23-24). The settings on record: for sweetness intensity: average score. How it is done:
A negative control sucralose solution (0.0140 wt % sucralose solution) was prepared by dissolving sucralose in filtered water.
as §1
Sweetness intensity was evaluated by 0.0 to 10.0 point based on the following reference samples (negative control (hereinafter referred to as NC) (0.0 point); reference 1 (hereinafter referred to as R1) (3.0 points), reference 2 (hereinafter referred to as R2) (5.0 points); reference 3 (hereinafter referred to as R3) (10.0 points)). The average score (rounded to two decimal places) of each expert panelist was calculated. An average score of 3.0 points or more was considered to be functional. • NC (0.0 point): 0.0140 wt % sucralose solution (solvent: filtered water) • R1 (3.0 points): 0.0164 wt % sucralose solution (solvent: filtered water) • R2 (5.0 points): 0.0180 wt % sucralose solution (solvent: filtered water) • R3 (10.0 points): 0.0220 wt % sucralose solution (solvent: filtered water)
A sensory evaluation of sweetness intensity was performed for each sample by a panel of four experts according to the same evaluation criteria as in Experimental Example 23.

Assay [4] in a line: Sensory evaluation of sweetness intensity in RebM solution (Experimental Examples 20-21). The method, then: A negative control RebM solution (0.063 wt % RebM solution) was prepared by dissolving RebM in filtered water.
as §1
as §2, with “to 10.0 points based on” for “to 10.0 point based on”, “as R1) (3.0 points), reference” for “as R1) (3.2 points), reference”, “wt % RebM solution (solvent:” for “wt % aspartame solution (solvent:”, “• R1 (3.0 points): 0.063” for “• R1 (3.2 points): 0.063”, “(solvent: filtered water)+dodecanoic acid (1” for “(solvent: filtered water)+decanoic acid (10”, “water)+dodecanoic acid (1 ppb) •” for “water)+decanoic acid (10 ppb) •”
A sensory evaluation of sweetness intensity was performed for each sample by a panel of four experts according to the same evaluation criteria as in Experimental Example 20.

Assay [5] can be described thus: Sensory evaluation of sweetness intensity in sucrose solution (Experimental Examples 25-27). The method, then: A negative control sucrose solution (0.7 wt % sucrose solution) was prepared by dissolving sucrose in filtered water.
as §1
Sweetness intensity was evaluated by 0.0 to 10.0 points based on the following reference samples (negative control (hereinafter referred to as NC) (0.0 point); reference 1 (hereinafter referred to as R1) (3.0 points), reference 2 (hereinafter referred to as R2) (5.0 points); reference 3 (hereinafter referred to as R3) (10.0 points)). The average score (rounded to two decimal places) of each expert panelist was calculated. An average score of 3.0 points or more was considered to be functional. • NC (0.0 point): 7.0 wt % sucrose solution (solvent: filtered water) • R1 (3.0 points): 7.3 wt % sucrose solution (solvent: filtered water) • R2 (5.0 points): 7.5 wt % sucrose solution (solvent: filtered water) • R3 (10.0 points): 8.0 wt % sucrose solution (solvent: filtered water)
A sensory evaluation of sweetness intensity was performed for each sample by a panel of four experts according to the same evaluation criteria as in Experimental Example 25.

As for `CCCCCCCCC(=O)O` [nonanoic acid], the sweetness intensity was 0.8 points in assay [1] (acid added alone at 0.001 ppb); 2.0 points in assay [1] (acid added alone at 0.01 ppb); 2.7 points in assay [1] (acid added alone at 0.1 ppb); 3.4 points in assay [1] (acid added alone at 1 ppb); 4.5 points in assay [1] (acid added alone at 10 ppb); 4.9 points in assay [1] (acid added alone at 100 ppb). Further, the sweetness intensity in assay [1] (acid added alone at 1000 ppb) worked out at 5.4 points; in assay [1] (acid added alone at 10000 ppb), 5.9 points; in assay [2] (acid added alone at 0.001 ppb), 0.7 points; in assay [2] (acid added alone at 0.01 ppb), 1.0 points; in assay [2] (acid added alone at 0.1 ppb), 1.8 points; in assay [2] (acid added alone at 1 ppb), 2.8 points. The sweetness intensity in assay [2] (acid added alone at 10 ppb) is reported as 3.3 points; in assay [2] (acid added alone at 100 ppb), 4.0 points; in assay [2] (acid added alone at 1000 ppb), 4.8 points; in assay [2] (acid added alone at 10000 ppb) it was 4.4 points; in assay [3] (added alone at 0.001 ppb to 0.0140 wt % sucralose solution), 1.3 points; in assay [3] (added alone at 0.01 ppb to 0.0140 wt % sucralose solution), 1.8 points. Besides, the sweetness intensity is listed as 2.4 points in assay [3] (added alone at 0.1 ppb to 0.0140 wt % sucralose solution); 3.0 points in assay [3] (added alone at 1 ppb to 0.0140 wt % sucralose solution); 3.5 points in assay [3] (added alone at 10 ppb to 0.0140 wt % sucralose solution); 3.9 points in assay [3] (added alone at 100 ppb to 0.0140 wt % sucralose solution); 4.3 points in assay [3] (added alone at 1000 ppb to 0.0140 wt % sucralose solution); 4.2 points in assay [3] (added alone at 10000 ppb to 0.0140 wt % sucralose solution). Moreover, the sweetness intensity is listed as 0.9 points in assay [4] (acid added alone at 0.001 ppb); 1.4 points in assay [4] (acid added alone at 0.01 ppb); 2.1 points in assay [4] (acid added alone at 0.1 ppb); 2.8 points in assay [4] (acid added alone at 1 ppb); 3.3 points in assay [4] (acid added alone at 10 ppb); 4.1 points in assay [4] (acid added alone at 100 ppb). Moreover, the sweetness intensity in assay [4] (acid added alone at 1000 ppb) and in assay [4] (acid added alone at 10000 ppb) was 4.8 points in each case. Also, the “concentration at which a sweetness-enhancing effect was confirmed” value is recorded as at least 10 ppb in assay [2] and at least 1 ppb in assay [3] (sucralose solution, added alone, 3.0 points or more).
Consider `O=C1C[C@@H](c2ccc(O)cc2)Oc2cc(O)cc(O)c21` [naringenin], for which the “concentration at which a sweetness-enhancing effect was confirmed” value in assay [2] is on record as at least 10 ppm; in assay [5] (added alone, 3.0 points or more), at least 15 ppm. Also, the sweetness intensity in assay [2] (naringenin alone at 1 ppm) came to 1.8 points; in assay [2] (naringenin alone at 5 ppm), 2.5 points; in assay [2] (naringenin alone at 10 ppm) it was 3.3 points; in assay [2] (naringenin alone at 15 ppm) it was 4.1 points; in assay [2] (naringenin alone at 30 ppm) it was 5.0 points; in assay [2] (naringenin alone at 50 ppm) it was 5.4 points. The sweetness intensity in assay [5] (naringenin alone at 1 ppm) was 1.1 points; in assay [5] (naringenin alone at 5 ppm), 1.7 points; in assay [5] (naringenin alone at 10 ppm) it was 2.6 points; in assay [5] (naringenin alone at 15 ppm), 3.6 points; in assay [5] (naringenin alone at 30 ppm) it was 4.6 points; in assay [5] (naringenin alone at 50 ppm), 5.8 points.
